# Assays:
# [1] = tested on: Glo1; assay: Glo1 mRNA by real-time RT-PCR in cultured cells; format: cell-based, human; conditions: for induction of Glo1 expression: known nrf2 activators, data not shown
# Description: (§1) Cell Culture Human hepatoma HepG2 cells and human BJ fibroblasts were cultured in Eagle's Minimum Essential Medium (MEM) medium with 10% foetal calf serum (FCS) and 2 mM glutamine under an atmosphere of 5% CO2 in air, 100% humidity and 37° C. Where sulforaphane was used, the R-stereoisomer was used. R-Sulforaphane (SFN) and allyl isothiocyanate (AITC) were purchased from Sigma-Aldrich (Poole, Dorset, UK).
# Real-Time PCR Total RNA was extracted from cultured cells which were treated with SFN, AITC using RNeasy Mini Kit (QIAGEN). cDNAs were synthesized with oligo (dT)18 primer and BioScript reverse transcriptase (BIOLINE). Human GLO1 and ACTB (β-actin reference gene) mRNA were quantified by real-time RT-PCR SYBR green method on ABI 7500 fast real-time PCR system. The following primers were used to amplify GLO1, forward 5′-[…]-3′ (SEQ ID NO: 5) and reverse 5′-[…]-3′ (SEQ ID NO: 6). The reference gene ACTB was amplified with primers 5′-[…]-3′ SEQ ID NO: 7)(forward) and 5′-[…]-3′ (SEQ ID NO: 8)(reverse).
# [2] = in vitro; conditions: human, BJ fibroblasts
# [3] = tested on: HepG2 cells; assay: Frameshift mutation-dependent GFP reporter in HepG2 cells; format: cell-based, human; conditions: 400 μM MG
# Description: The pEGFP-CA/T12 vector is a reporter for efficiency of transfection while pEGFP-CA13 vector is a reporter of frameshift mutation induced by MG.^30 HepG2 cells (2×10^5 cells/well) were cultured in 12-well plates for 24 h, the MEM medium removed, the cells washed with serum free medium and replaced with DNA/lipofectamine complexes in serum free medium—transfection medium (Lipofectamine 2000 reagent, 2 μl; (1.8 μg pEGFP-CA13 or pEGFP-CA/T12; 2.0 ml serum free medium)—and incubated for 5 h at 37° C. The transfection medium was removed and replaced with complete MEM medium supplemented with 10% FCS and 2 mM glutamine) and incubated for 48 h. Transfection efficiency was assessed quantitatively by flow cytometry. […] Thereafter, cells were washed with phosphate-buffered saline (PBS) and analysed for GFP expression by flow cytometry.
# [4] = tested on: BJ fibroblasts; conditions: scavenging of MG; reference 28; cited from earlier work
# [5] = tested on: HepG2 cells; assay: Growth inhibition of HepG2 cells by MG; format: cell-based; conditions: Homo sapiens, n=8, read-out: median growth inhibitory concentration
# [6] = tested on: Glo1; conditions: 2 μM SFN, over 16 h, BJ fibroblasts
# Description: as §1
# [7] = tested on: HepG2 cells; conditions: 2 μM SFN
# Description: (§2) Other Methods. Activity of Glo1 was determined by measuring the initial rate of isomerisation of the hemithioacetal formed from methylglyoxal and GSH to S-D-lactoylglutathione followed spectrophotometrically at 240 nm.^43 The concentration of MG in cells and culture medium was determined by stable isotopic dilution analysis liquid chromatography with tandem mass spectrometric detection.^4 ROS formation was assessed with dichlorodihydrofluorescein diacetate (H2DCFDA), monitoring the generation of dichlorofluorescein (DCF) fluorescence. HepG2 cells and BJ fibroblasts were incubated with H2DCFDA for 30 min, washed in PBS and DCF fluorescence quantified by flow cytometry.^44
# [8] = tested on: methylglyoxal; conditions: 24 h post-treatment
# Description: as §2
# [9] = tested on: BJ fibroblasts
# Excerpt: Normal ageing may be modelled in human cells in vitro by cell senescence.
# [10] = tested on: BJ fibroblasts; conditions: 2 μM SFN, after 48 h
# [11] = tested on: HMEC-1 endothelial cells; conditions: collagen conditioned with medium from BJ cells incubated with 2 μM SFN for 24 h
# Description: The culture medium was then removed, incubated with human type IV collagen for 24 h and human microvascular endothelial HMEC-1 cell attachment studied as described^13a. […] The medium was then removed and added to wells of a 96-well plate (96-well; Costar; Corning) that had be prior coated type IV collagen. For the coating, 100-□l of 100 µg/ml of type IV collagen (human placental, type IV, pepsin extracted) was added to each well and incubated for 24 h at 37° C. Wells were then washed with phosphate buffered saline. Collagen coated wells were incubated with medium from BK cell cultures for 24 h at 37° C. and then washed with phosphate buffered saline. HMEC-1 endothelial cells (2.5×10^4 cells/well) were plated on to the collagen substrates and incubated for 1 h at 37° C. Non-adherent cells were removed and adherent cells were quantified by staining with 3-(4,5-dimethylthiazole-2-yl)-2,5-diphenyltetrazolium bromide, lysed with dimethylsulfoxide and the blue formazan product detected, by absorbance at 560 nm (Paul, R G, Bailey, A J: The effect of advanced glycation end-product formation upon cell-matrix interactions. Int J Biochem Cell Biol 31: 653-660, 2004).
# [12] = tested on: GLO1 promoter (ARE1); conditions: ARE1 alone, HepG2 cells, 4 μM SFN 24 h
# Description: Transfection and Luciferase Assay of Custom Vectors For luciferase assays, 2×10^5 HepG2 cells per well were plated into 24-well plates and cultured overnight. The cells were transfected with 0.5 μg reporter vector and 10 ng pRL-TK plasmid using Lipofectamine 2000 according to manufacture's protocol. The empty pGL3-basic vector was used as control. After 24 h, 4 μM SFN was added to the cells and vehicle (DMSO) added to control. After 24 h, the cells were washed with PBS and luciferase activity assay performed immediately or samples stored at −80° C. until analysis. For the reporter assay, 100 μl Cell Culture Lysis Reagent (CCLR, Promega) was added to cell extracts and shaken gently for 30 min. The activity mixture was centrifuged (12,000 g, 5 min, 4° C.) and an aliquot (20 μl) of supernatant used in the reporter assay. The luciferase activity was determined using a Dual Luciferase Reporter Assay System (Promega). The relative luciferase activities were normalized by co-transfection of pRL-TK vector.
# [13] = tested on: BJ fibroblasts; assay: cells; conditions: Homo sapiens, Fibroblast, 24 h, read-out: cell viability during exposure to hydrogen peroxide
structure (smiles),measurement,setting,value
OCc1c[nH]c2ccccc12 [indole-3-carbinol],induction of Glo1 expression,[1],not potent inducers
OO [hydrogen peroxide],viability at 200 μM,[2],74%
"C=CCN=C=S [AITC, allyl isothiocyanate]",frameshift mutations induced by MG,[3]; prior 2 μM AITC,prevented
same,frameshift mutation-dependent GFP induced by MG,[3]; prior exposure to 2 μM AITC,prevented
CC(C)(C)c1cc(O)ccc1O [tert-butylhydroquinone],induction of Glo1 expression,[1],not potent inducers
N=C(N)NN [aminoguanidine],effect on cytotoxicity induced by exogenous hydrogen peroxide in vitro,[4],protective
"CC(=O)C=O [MG, methylglyoxal]",IC50,[5],1.07 ± 0.08 mM
same,frameshift mutation-dependent GFP,[3],increased
same,frameshift mutations,[3],increased
C=CCSSCC=C [diallyldisulphide],induction of Glo1 expression,[1],not potent inducers
"C[S@@+]([O-])CCCCN=C=S [SFN, R-Sulforaphane]",time post-treatment at which Glo1 mRNA maximised,"[1]; 2 μM SFN time course, BJ fibroblasts",12 h
same,Glo1 mRNA,"[1]; dose response, BJ fibroblasts",dose-dependent increase
same,Glo1 protein,[6],increase in Glo1 protein progressively
same,endogenous ROS,[7],decrease
same,ROS induced by exogenous hydrogen peroxide,[7]; 20 μM hydrogen peroxide,decrease
same,concentration of methylglyoxal in the cell culture,[8]; HepG2 culture medium,marked decrease
same,concentration of MG in cells,"[8]; BJ fibroblasts, 2 μM SFN",decreased concentration
same,concentration of MG in the cell culture medium,"[8]; BJ fibroblasts, 2 μM SFN",decreased concentration
same,effect on Hayflick limit,"[9]; BJ cells, 1.0 μM SFN per passage from cumulative PDL 30",allowed escape from the Hayflick limit
same,"Hayflick limit, cumulative PDL","[9]; BJ cells, 2×0.5 μM SFN per passage from cumulative PDL 45, control limit PDL 49",50.5
same,increase in cell number per passage,"[9]; BJ fibroblasts, 1.0 μM SFN per passage, beyond cumulative PDL 53",> 3 fold
same,cellular protein MG-H1 residue content,[10],decrease
same,HMEC-1 endothelial cell adhesion to type IV collagen,[11],Improved
same,Glo1 transcriptional response of luciferase reporter,[12],maximal induction
same,viability at 0.5 µM,[13],88%
